The target in experiment [1] is T1, EP2 (Homo sapiens, UniProt P43116). As to the kind of experiment: EP2 competition binding ([3H]PGE2). On the set-up: expressed in transfected cells; host or cells: HEK 293. The settings on record: HEK 293 cells stably expressing human EP2, [3H]PGE2. As for the experimental part:
Competition binding experiments were performed in a medium containing Hank's balanced salt solution, Hepes 20 mM, pH 7.3, membranes (˜60 μg protein) or 2×10^5 cells from HEK 293 cells stably expressing human EP2 receptors, [^3H]PGE2 (10 nM) and various concentrations of test compounds in a total volume of […] Reaction mixtures were incubated at 23° C. for 60 min, and were filtered over Whatman GF/B filters under vacuum. Filters were washed three times with 5 ml ice-cold buffer containing 50 mM Tris/HCl (pH 7.3). Non-specific binding was estimated in the presence of excess unlabeled PGE2 (10 μM). Binding data fitted to the binding model for a single class of binding sites, using nonlinear regression analysis. IC50 values thus obtained were converted to Ki using the equation of Ki=(IC50/(1+[L]/KD) where [L] represents PGE2 concentration (10 nM) and KD the dissociation constant for [^3H]PGE2 at human EP2 receptors (40 nM). […]
The cell homogenate was centrifuged at 19000 r.p.m. for 20 min at 4° C. using a Beckman Ti-60 rotor. The resultant pellet was resuspended in TME buffer to give a final 1 mg/ml protein concentration, as determined by Biorad assay. […]
[^3H-]PGE2 (specific activity 180 Ci mmol) was used as the radioligand for EP receptors. […] 17-phenyl PGF2α and non-specific binding determined with 10^−5M of unlabeled PGE2, or 17-phenyl PGF2α, according to receptor subtype studied.

A further experiment has as its target T2, hEP2/Gqs5 (Homo sapiens, UniProt P43116).
T2 construct: expressed in transfected cells; host or cells: HEK-293(EBNA)
Put plainly: EP2 FLIPR calcium signal. Format: cell-based. As to conditions: HEK-293(EBNA) cells. As for the experimental part: (§1) HEK-293(EBNA) cells, stably expressing one type or subtype of recombinant human prostaglandin receptors (prostaglandin receptors expressed: hDP/Gqs5; hEP1; hEP2/Gqs5; hEP3A/Gqi5; hER4/Gqs5; hFP; hIP; hTP), were cultured in 100 mm culture dishes in high-glucose DMEM medium containing 10% fetal bovine serum, 2 mM 1-glutamine, 250 μg/ml geneticin (G418) and 200 μg/ml hygromycin B as selection markers, and 100 units/ml penicillin G, 100 μg/ml streptomycin and 0.25 μg/ml amphotericin B.
(§2) Cells were seeded at a density of 5×10^4 cells per well in Biocoat® Poly-D-lysine-coated black-wall, clear-bottom 96-well plates (Becton-Dickinson) and allowed to attach overnight in an incubator at 37° C. Cells were then washed two times with HBSS-HEPES buffer (Hanks Balanced Salt Solution without bicarbonate and phenol red, 20 mM HEPES, pH 7.4) using a Denley Cellwash plate washer (Labsystems). […]
(§3) Cells were excited with an Argon laser at 488 nm, and emission was measured through a 510-570 nm bandwidth emission filter (FLIPR™, Molecular Devices, Sunnyvale, Calif.). […] The peak increase in fluorescence intensity was recorded for each well. […] The peak fluorescence change in each drug-containing well was then expressed relative to the controls. […]

In the next experiment the target is T3, hEP3A/Gqi5 (Homo sapiens, UniProt P43115).
T3 construct: expressed in transfected cells; host or cells: HEK-293(EBNA)
T3 sequence (P43115 1-390): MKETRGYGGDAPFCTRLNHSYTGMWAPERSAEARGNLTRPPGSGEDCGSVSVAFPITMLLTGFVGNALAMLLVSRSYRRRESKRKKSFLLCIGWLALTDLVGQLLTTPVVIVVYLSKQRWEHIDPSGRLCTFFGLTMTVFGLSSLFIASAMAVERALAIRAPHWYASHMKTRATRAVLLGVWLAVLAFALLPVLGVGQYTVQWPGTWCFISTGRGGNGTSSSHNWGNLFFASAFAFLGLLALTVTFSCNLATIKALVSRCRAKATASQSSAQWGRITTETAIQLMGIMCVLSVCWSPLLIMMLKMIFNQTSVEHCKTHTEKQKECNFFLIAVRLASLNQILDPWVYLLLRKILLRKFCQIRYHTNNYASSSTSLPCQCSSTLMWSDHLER
As to the kind of experiment: Other receptors: hEP3A FLIPR. Format: cell-based. As for the experimental part:
as §1, §2, §3

The target of experiment [2] is T1, EP2. Put plainly: EP2 cAMP. Format: cell-based.
In a further experiment the target is T4, EP4 receptors (Homo sapiens, UniProt P35408).
T4 construct: expressed in transfected cells; host or cells: HEK-293
Put plainly: EP4 radioligand binding ([3H]PGE2). The procedure: HEK-293 cells stably expressing the human or feline FP receptor, or EP1, EP2, or EP4 receptors were washed with TME buffer, scraped from the bottom of the flasks, and homogenized for 30 sec using a Brinkman PT 10/35 polytron. TME buffer was added to achieve a final 40 ml volume in the centrifuge tubes (the composition of TME is 100 mM TRIS base, 20 mM MgCl2, […]; 10N HCl is added to achieve a pH of 7.4).
The cell homogenate was centrifuged at 19000 r.p.m. for 20 min at 4° C. using a Beckman Ti-60 rotor. The resultant pellet was resuspended in TME buffer to give a final 1 mg/ml protein concentration, as determined by Biorad assay. Radioligand binding competition assays vs. [^3H-]17-phenyl PGF2α (5 nM) were performed in a 100 μl volume for 60 min. Binding reactions were started by adding plasma membrane fraction. The reaction was terminated by the addition of 4 ml ice-cold TRIS-HCl buffer and rapid filtration through glass fiber GF/B filters using a Brandel cell harvester. The filters were washed 3 times with ice-cold buffer and oven dried for one hour.
[^3H-]PGE2 (specific activity 180 Ci mmol) was used as the radioligand for EP receptors. [^3H] 17-phenyl PGF2α was employed for FP receptor binding studies. […] 17-phenyl PGF2α and non-specific binding determined with 10^−5M of unlabeled PGE2, or 17-phenyl PGF2α, according to receptor subtype studied.

T1 sequence (P43116 whole entry): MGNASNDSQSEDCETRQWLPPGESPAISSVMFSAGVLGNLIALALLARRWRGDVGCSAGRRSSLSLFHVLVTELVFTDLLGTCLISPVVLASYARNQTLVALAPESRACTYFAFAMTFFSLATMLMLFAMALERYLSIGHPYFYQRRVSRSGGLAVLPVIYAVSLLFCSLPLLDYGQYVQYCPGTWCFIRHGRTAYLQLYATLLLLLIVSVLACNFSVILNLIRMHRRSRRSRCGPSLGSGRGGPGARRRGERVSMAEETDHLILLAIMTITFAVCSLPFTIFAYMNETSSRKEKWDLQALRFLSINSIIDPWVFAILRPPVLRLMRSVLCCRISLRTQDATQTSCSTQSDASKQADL
T2 sequence (P43116 whole entry): as above
T4 sequence (P35408 whole entry): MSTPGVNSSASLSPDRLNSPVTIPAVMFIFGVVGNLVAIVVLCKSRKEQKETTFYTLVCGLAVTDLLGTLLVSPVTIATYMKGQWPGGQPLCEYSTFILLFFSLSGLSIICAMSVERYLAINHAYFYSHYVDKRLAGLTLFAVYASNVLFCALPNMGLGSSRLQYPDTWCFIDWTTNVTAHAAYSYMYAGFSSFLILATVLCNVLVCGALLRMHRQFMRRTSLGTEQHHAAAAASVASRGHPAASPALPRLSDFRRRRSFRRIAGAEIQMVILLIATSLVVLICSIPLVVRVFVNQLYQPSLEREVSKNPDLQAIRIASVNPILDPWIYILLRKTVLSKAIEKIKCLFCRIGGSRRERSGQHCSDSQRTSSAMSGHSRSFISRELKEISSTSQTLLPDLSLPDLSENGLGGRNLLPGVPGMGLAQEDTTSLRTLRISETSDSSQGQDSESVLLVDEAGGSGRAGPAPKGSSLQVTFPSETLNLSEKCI

Regarding `CCCCCC(O)c1ccc(N2C(=O)CC[C@@H]2C=CCc2ccc(C(=O)O)s2)cc1` (stereo partly drawn) [Example 16, 5-((E and Z)-3-{(R)-1-[4-(1-Hydroxy-hexyl)-phenyl]-5-oxo-pyrrolidin-2-yl}-allyl)-thiophene-2-carboxylic acid], the Ki was 1380 nM on EP2 [1] and greater than 10000 nM at EP4 receptors. Moreover, the EC50 came out at 226 nM on hEP2/Gqs5, 1410 nM at hEP3A/Gqi5 and 15 nM on EP2 [2].

A word on the Ki: it is the equilibrium dissociation constant of an inhibitor or competing ligand from its target. Low readings indicate a stronger hold on the target, high ones a looser hold on the target. A word on the EC50: it is the midpoint of the concentration-response curve.
